Measurements reported in ChEMBL document CHEMBL3785084, “Rational modification of the lead molecule: Enhancement in the anticancer and dihydrofolate reductase inhibitory activity” (Bioorg Med Chem Lett, 2016).

What was measured:
[1] = Cytotoxicity against human NCI-ADR-RES cells after 48 hrs by sulforhodamine B assay; format: functional; conditions: for CC50: read-out: LC50 (the source's name)
[2] = Cytotoxicity against human Hs 578T cells after 48 hrs by sulforhodamine B assay; format: functional; conditions: for CC50: read-out: LC50 (the source's name)
[3] = test system: SR; assay: Cytotoxicity against human SR cells after 48 hrs by sulforhodamine B assay; format: functional; conditions: for CC50: read-out: LC50 (the source's name)
[4] = test system: SK-MEL-5; assay: cells; conditions: Homo sapiens, SK-MEL-5, 48 h; for CC50: read-out: LC50
Description: Cytotoxicity against human SK-MEL-5 cells after 48 hrs by sulforhodamine B assay

[5] = cells; conditions: Homo sapiens, UACC-257, 48 h; for CC50: read-out: LC50
Description: Cytotoxicity against human UACC257 cells after 48 hrs by sulforhodamine B assay

[6] = cells; conditions: Homo sapiens, UACC-62, 48 h; for CC50: read-out: LC50
Description: Cytotoxicity against human UACC62 cells after 48 hrs by sulforhodamine B assay

[7] = cells; conditions: Homo sapiens, OVCAR-4, 48 h
Description: Cytotoxicity against human OVCAR4 cells after 48 hrs by sulforhodamine B assay

[8] = cells; conditions: Homo sapiens, SK-OV-3, 48 h; for CC50: read-out: LC50
Description: Cytotoxicity against human SKOV3 cells after 48 hrs by sulforhodamine B assay

[9] = test system: 786-0; assay: cells; conditions: Homo sapiens, 786-0, 48 h; for CC50: read-out: LC50
Description: Cytotoxicity against human 786-0 cells after 48 hrs by sulforhodamine B assay

[10] = cells; conditions: Homo sapiens, CAKI-1, 48 h; for CC50: read-out: LC50
Description: Cytotoxicity against human Caki1 cells after 48 hrs by sulforhodamine B assay

[11] = cells; conditions: Homo sapiens, RXF 393, 48 h; for CC50: read-out: LC50
Description: Cytotoxicity against human RXF393 cells after 48 hrs by sulforhodamine B assay

[12] = test system: SN12C; assay: cells; conditions: Homo sapiens, 48 h; for CC50: read-out: LC50
Description: Cytotoxicity against human SN12C cells after 48 hrs by sulforhodamine B assay

[13] = cells; conditions: Homo sapiens, TK-10, 48 h; for CC50: read-out: LC50
Description: Cytotoxicity against human TK10 cells after 48 hrs by sulforhodamine B assay

[14] = cells; conditions: Homo sapiens, UO-31, 48 h; for CC50: read-out: LC50
Description: Cytotoxicity against human UO31 cells after 48 hrs by sulforhodamine B assay

[15] = test system: T47D; assay: cells; conditions: Homo sapiens, 48 h
Description: Cytotoxicity against human T47D cells after 48 hrs by sulforhodamine B assay

[16] = test system: MDA-MB-468; assay: cells; conditions: Homo sapiens, MDA-MB-468, 48 h; for CC50: read-out: LC50
Description: Cytotoxicity against human MDA-MB-468 cells after 48 hrs by sulforhodamine B assay

[17] = test system: CCRF-CEM; assay: cells; conditions: Homo sapiens, 48 h; for CC50: read-out: LC50
Description: Cytotoxicity against human CCRF-CEM cells after 48 hrs by sulforhodamine B assay

[18] = test system: K562; assay: cells; conditions: Homo sapiens, K562, 48 h; for CC50: read-out: LC50
Description: Cytotoxicity against human K562 cells after 48 hrs by sulforhodamine B assay

[19] = test system: A549; assay: cells; conditions: Homo sapiens, A549, 48 h; for CC50: read-out: LC50
Description: Cytotoxicity against human A549 cells after 48 hrs by sulforhodamine B assay

[20] = cells; conditions: Homo sapiens, HOP-62, 48 h; for CC50: read-out: LC50
Description: Cytotoxicity against human HOP62 cells after 48 hrs by sulforhodamine B assay

[21] = cells; conditions: Homo sapiens, HOP-92, 48 h; for CC50: read-out: LC50
Description: Cytotoxicity against human HOP92 cells after 48 hrs by sulforhodamine B assay

[22] = test system: NCI-H226; assay: cells; conditions: Homo sapiens, NCI-H226, 48 h; for CC50: read-out: LC50
Description: Cytotoxicity against human NCI-H226 cells after 48 hrs by sulforhodamine B assay

[23] = test system: NCI-H23; assay: cells; conditions: Homo sapiens, NCI-H23, 48 h; for CC50: read-out: LC50
Description: Cytotoxicity against human NCI-H23 cells after 48 hrs by sulforhodamine B assay

[24] = cells; conditions: Homo sapiens, COLO 205, 48 h
Description: Cytotoxicity against human COLO205 cells after 48 hrs by sulforhodamine B assay

[25] = cells; conditions: Homo sapiens, HCC 2998, 48 h; for CC50: read-out: LC50
Description: Cytotoxicity against human HCC2998 cells after 48 hrs by sulforhodamine B assay

[26] = cells; conditions: Homo sapiens, HCT-116, 48 h; for CC50: read-out: LC50
Description: Cytotoxicity against human HCT116 cells after 48 hrs by sulforhodamine B assay

[27] = cells; conditions: Homo sapiens, HCT-15, 48 h; for CC50: read-out: LC50
Description: Cytotoxicity against human HCT15 cells after 48 hrs by sulforhodamine B assay

[28] = test system: HT-29; assay: cells; conditions: Homo sapiens, HT-29, 48 h; for CC50: read-out: LC50
Description: Cytotoxicity against human HT-29 cells after 48 hrs by sulforhodamine B assay

[29] = cells; conditions: Homo sapiens, SW-620, 48 h; for CC50: read-out: LC50
Description: Cytotoxicity against human SW620 cells after 48 hrs by sulforhodamine B assay

[30] = cells; conditions: Homo sapiens, SF-295, 48 h; for CC50: read-out: LC50
Description: Cytotoxicity against human SF295 cells after 48 hrs by sulforhodamine B assay

[31] = cells; conditions: Homo sapiens, SNB-19, 48 h; for CC50: read-out: LC50
Description: Cytotoxicity against human SNB19 cells after 48 hrs by sulforhodamine B assay

[32] = cells; conditions: Homo sapiens, SNB-75, 48 h; for CC50: read-out: LC50
Description: Cytotoxicity against human SNB75 cells after 48 hrs by sulforhodamine B assay

[33] = cells; conditions: Homo sapiens, LOX IMVI, 48 h; for CC50: read-out: LC50
Description: Cytotoxicity against human LOXIMVI cells after 48 hrs by sulforhodamine B assay

[34] = test system: M14; assay: cells; conditions: Homo sapiens, M14, 48 h; for CC50: read-out: LC50
Description: Cytotoxicity against human M14 cells after 48 hrs by sulforhodamine B assay

[35] = test system: MDA-MB-435; assay: cells; conditions: Homo sapiens, MDA-MB-435, 48 h; for CC50: read-out: LC50
Description: Cytotoxicity against human MDA-MB-435 cells after 48 hrs by sulforhodamine B assay

[36] = test system: SK-MEL-28; assay: cells; conditions: Homo sapiens, SK-MEL-28, 48 h; for CC50: read-out: LC50
Description: Cytotoxicity against human SK-MEL-28 cells after 48 hrs by sulforhodamine B assay

In the case of `COc1cc(/C=C2\C(=O)Nc3ccccc32)cc(OC)c1O`, the GI50 [1] is reported as 2.5 µM, the TGI [1] is reported as 7.5 µM and the CC50 [1] is reported as > 100 µM. The GI50 [2] was 1.8 µM, the TGI [2] was 6.1 µM and the CC50 [2] was > 100 µM. The GI50 [3] was 1.5 µM, the TGI [3] was 16.9 µM and the CC50 [3] was > 100 µM. The GI50 [4] was 2.9 µM, the TGI [4] was 10.7 µM and the CC50 [4] was 33.1 µM. The GI50 [5] was 1.8 µM, the TGI [5] was 18.6 µM and the CC50 [5] was 67.6 µM. For the same molecule, the GI50 [6] was 2.6 µM, the TGI [6] was 11.2 µM and the CC50 [6] was 35.4 µM. For the same molecule, the GI50 [7] was 4.9 µM, the TGI [7] was 31.6 µM and the CC50 ([7]; read-out: LC50) was > 100 µM. For the same molecule, the GI50 [8] was 3.9 µM, the TGI [8] was 21.3 µM and the CC50 [8] was > 100 µM. For the same molecule, the GI50 [9] was 7.1 µM, the TGI [9] was 27.5 µM and the CC50 [9] was 91.2 µM. For the same molecule, the GI50 [10] was 2.9 µM, the TGI [10] was 25.1 µM and the CC50 [10] was > 100 µM. It also gave a GI50 [11] of 2.5 µM, a TGI [11] of 8.3 µM and a CC50 [11] of 30.9 µM. For the same molecule, the GI50 [12] was 3.6 µM, the TGI [12] was 23.4 µM and the CC50 [12] was > 100 µM. For the same molecule, the GI50 [13] was 7.1 µM, the TGI [13] was 37.1 µM and the CC50 [13] was > 100 µM. The GI50 [14] was 2.6 µM, the TGI [14] was 19.9 µM and the CC50 [14] was > 100 µM. The GI50 [15] was 3.5 µM, the TGI [15] was 85.1 µM and the CC50 ([15]; read-out: LC50) was > 100 µM. The GI50 [16] was 1.5 µM, the TGI [16] was 7.7 µM and the CC50 [16] was 63.1 µM. For the same molecule, the GI50 [17] was 5.1 µM, the TGI [17] was > 100 µM and the CC50 [17] was > 100 µM. The GI50 [18] was 2.1 µM, the TGI [18] was > 100 µM and the CC50 [18] was > 100 µM. The GI50 [19] was 4.9 µM, the TGI [19] was 47.8 µM and the CC50 [19] was > 100 µM. The GI50 [20] was 4.3 µM, the TGI [20] was 23.4 µM and the CC50 [20] was > 100 µM. For the same molecule, the GI50 [21] was 4.2 µM, the TGI [21] was 48.9 µM and the CC50 [21] was > 100 µM. The GI50 [22] was 17.7 µM, the TGI [22] was > 100 µM and the CC50 [22] was > 100 µM. For the same molecule, the GI50 [23] was 5 µM, the TGI [23] was 33.8 µM and the CC50 [23] was > 100 µM. The GI50 [24] was 12.3 µM, the TGI [24] was 26.9 µM and the CC50 ([24]; read-out: LC50) was 58.8 µM. It also gave a GI50 [25] of 11.7 µM, a TGI [25] of 24.5 µM and a CC50 [25] of 51.3 µM. It also gave a GI50 [26] of 3.3 µM, a TGI [26] of 13.4 µM and a CC50 [26] of 37.1 µM. The GI50 [27] was 3.2 µM, the TGI [27] was 15.1 µM and the CC50 [27] was 64.5 µM. The GI50 [28] was 9.1 µM, the TGI [28] was 30.9 µM and the CC50 [28] was > 100 µM. It also gave a GI50 [29] of 3.2 µM, a TGI [29] of 13.2 µM and a CC50 [29] of 36.7 µM. The GI50 [30] was 3 µM, the TGI [30] was 30.9 µM and the CC50 [30] was > 100 µM. The GI50 [31] was 4.5 µM, the TGI [31] was 54.9 µM and the CC50 [31] was > 100 µM. For the same molecule, the GI50 [32] was 11.7 µM, the TGI [32] was 8.5 µM and the CC50 [32] was > 100 µM. The GI50 [33] was 4 µM, the TGI [33] was 16.2 µM and the CC50 [33] was 44.6 µM. It also gave a GI50 [34] of 2.7 µM, a TGI [34] of 10.9 µM and a CC50 [34] of 67.6 µM. For the same molecule, the GI50 [35] was 0.6 µM, the TGI [35] was 2.2 µM and the CC50 [35] was 6 µM. The GI50 [36] was 5 µM, the TGI [36] was 22.9 µM and the CC50 [36] was 83.2 µM.
With `O=C1Nc2ccccc2/C1=C/c1cn(CC(O)Cn2cc(/C=C3\C(=O)Nc4ccccc43)c3ccccc32)c2ccccc12` (configuration not stated) the GI50 [1] was 12 µM, the TGI [1] was 54.5 µM and the CC50 [1] was > 100 µM. For the same molecule, the GI50 [2] was 2.4 µM, the TGI [2] was 7.8 µM and the CC50 [2] was > 100 µM. For the same molecule, the GI50 [3] was 0.39 µM, the CC50 [3] was > 100 µM and the GI50 [4] was 1.9 µM. It also gave a TGI [4] of 3.8 µM, a CC50 [4] of 7.3 µM and a GI50 [5] of 2.3 µM. It also gave a TGI [5] of 4.4 µM, a CC50 [5] of 8.3 µM and a GI50 [6] of 1.6 µM. For the same molecule, the TGI [6] was 3.1 µM, the CC50 [6] was 6.1 µM and the GI50 [7] was 1.8 µM. It also gave a TGI [7] of 3.9 µM, a GI50 [8] of 1.6 µM and a TGI [8] of 3.6 µM. For the same molecule, the CC50 [8] was 8.1 µM, the GI50 [9] was 1.6 µM and the TGI [9] was 3.2 µM. The CC50 [9] was 6.1 µM, the GI50 [10] was 1.6 µM and the TGI [10] was 3.3 µM. It also gave a CC50 [10] of 7.1 µM, a GI50 [11] of 2.04 µM and a TGI [11] of 3.7 µM. It also gave a CC50 [11] of 6.9 µM, a GI50 [12] of 1.5 µM and a TGI [12] of 3.1 µM. It also gave a CC50 [12] of 6.5 µM, a GI50 [13] of 2.7 µM and a TGI [13] of 5.4 µM. It also gave a CC50 [13] of 14.4 µM, a GI50 [14] of 1.2 µM and a TGI [14] of 2.9 µM. It also gave a CC50 [14] of 6.7 µM, a GI50 [15] of 1.6 µM and a TGI [15] of 3.8 µM. The GI50 [16] was 2.03 µM, the TGI [16] was 3.7 µM and the CC50 [16] was 6.9 µM. For the same molecule, the GI50 [17] was 2.8 µM, the TGI [17] was 13.4 µM and the CC50 [17] was > 100 µM. The GI50 [18] was 1.2 µM, the TGI [18] was 3.5 µM and the CC50 [18] was > 100 µM. The GI50 [19] was 1.5 µM, the TGI [19] was 3.2 µM and the CC50 [19] was 6.8 µM. The GI50 [20] was 1.4 µM, the TGI [20] was 3.06 µM and the CC50 [20] was 6.6 µM. It also gave a GI50 [21] of 1.8 µM, a TGI [21] of 4.1 µM and a CC50 [21] of 9.5 µM. It also gave a GI50 [22] of 1.6 µM, a TGI [22] of 3.5 µM and a CC50 [22] of 7.5 µM. For the same molecule, the GI50 [23] was 1.5 µM, the TGI [23] was 3.3 µM and the CC50 [23] was 7.2 µM. The GI50 [24] was 1.6 µM, the TGI [24] was 3.6 µM and the GI50 [25] was 2.2 µM. It also gave a TGI [25] of 5.2 µM, a CC50 [25] of 17.3 µM and a GI50 [26] of 1.6 µM. For the same molecule, the TGI [26] was 4.1 µM, the CC50 [26] was 12.5 µM and the GI50 [27] was 1.7 µM. For the same molecule, the TGI [27] was 3.7 µM, the CC50 [27] was 7.7 µM and the GI50 [28] was 1.4 µM. It also gave a TGI [28] of 3.5 µM, a CC50 [28] of 8.7 µM and a GI50 [29] of 1.3 µM. It also gave a TGI [29] of 3.4 µM, a CC50 [29] of 9.04 µM and a GI50 [30] of 1.6 µM. It also gave a TGI [30] of 3.2 µM, a CC50 [30] of 6.4 µM and a GI50 [31] of 1.2 µM. For the same molecule, the TGI [31] was 3.8 µM, the CC50 [31] was > 100 µM and the GI50 [32] was 1.3 µM. The TGI [32] was 2.9 µM, the CC50 [32] was 6.4 µM and the GI50 [33] was 0.32 µM. For the same molecule, the TGI [33] was 1.3 µM, the CC50 [33] was 4.1 µM and the GI50 [34] was 1.3 µM. It also gave a TGI [34] of 2.8 µM, a CC50 [34] of 6.02 µM and a GI50 [35] of 1.8 µM. For the same molecule, the TGI [35] was 3.4 µM, the CC50 [35] was 6.6 µM and the GI50 [36] was 1.7 µM. The TGI [36] was 3.5 µM and the CC50 [36] was 6.9 µM.
